Where two headings read alike, the source gives them in different places.
How the values were obtained:
human TOR = molecular target: T1, human TOR (Homo sapiens, UniProt P42345); assay: mTOR enzyme assay (DELFIA, His6-S6K substrate); format: biochemical
T1 construct: FLAG

PI3K-alpha = PI3K-alpha (Homo sapiens, UniProt P42336); assay: PI3K-alpha fluorescence polarization assay; format: biochemical
[1] = read-out: mTOR Kinase Avg. IC50

PI3K-alpha, sequence (P42336 whole entry, species assumed): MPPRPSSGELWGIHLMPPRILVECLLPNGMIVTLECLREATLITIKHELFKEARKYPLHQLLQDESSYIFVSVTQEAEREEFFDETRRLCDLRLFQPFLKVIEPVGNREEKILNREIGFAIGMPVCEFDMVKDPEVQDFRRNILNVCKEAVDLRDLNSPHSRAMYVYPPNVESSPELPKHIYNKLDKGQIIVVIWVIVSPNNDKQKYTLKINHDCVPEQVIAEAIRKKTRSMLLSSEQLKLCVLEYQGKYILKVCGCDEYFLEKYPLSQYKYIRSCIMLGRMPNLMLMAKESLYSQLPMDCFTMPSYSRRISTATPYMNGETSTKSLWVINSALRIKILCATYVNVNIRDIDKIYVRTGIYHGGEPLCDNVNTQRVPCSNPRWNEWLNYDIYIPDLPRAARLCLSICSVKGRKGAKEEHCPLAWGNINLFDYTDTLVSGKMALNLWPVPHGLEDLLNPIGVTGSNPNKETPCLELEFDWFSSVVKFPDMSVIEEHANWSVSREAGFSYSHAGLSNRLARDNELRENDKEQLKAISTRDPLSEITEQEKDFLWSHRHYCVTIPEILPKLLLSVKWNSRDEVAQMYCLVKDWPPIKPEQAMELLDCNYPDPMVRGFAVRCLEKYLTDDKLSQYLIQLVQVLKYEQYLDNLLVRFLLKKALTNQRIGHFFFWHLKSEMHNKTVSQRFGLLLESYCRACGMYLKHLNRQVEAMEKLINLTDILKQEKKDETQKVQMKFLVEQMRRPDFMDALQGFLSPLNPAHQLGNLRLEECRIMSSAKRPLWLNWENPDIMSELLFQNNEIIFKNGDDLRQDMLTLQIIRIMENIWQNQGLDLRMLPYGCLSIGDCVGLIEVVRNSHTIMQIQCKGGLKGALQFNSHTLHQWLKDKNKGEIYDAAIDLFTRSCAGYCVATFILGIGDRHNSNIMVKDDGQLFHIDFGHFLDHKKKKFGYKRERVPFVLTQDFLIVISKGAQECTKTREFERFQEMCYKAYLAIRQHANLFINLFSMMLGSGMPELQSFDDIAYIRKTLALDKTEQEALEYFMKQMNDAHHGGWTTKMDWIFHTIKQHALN
PI3K-alpha, sequence (P27986 whole entry partner, species assumed): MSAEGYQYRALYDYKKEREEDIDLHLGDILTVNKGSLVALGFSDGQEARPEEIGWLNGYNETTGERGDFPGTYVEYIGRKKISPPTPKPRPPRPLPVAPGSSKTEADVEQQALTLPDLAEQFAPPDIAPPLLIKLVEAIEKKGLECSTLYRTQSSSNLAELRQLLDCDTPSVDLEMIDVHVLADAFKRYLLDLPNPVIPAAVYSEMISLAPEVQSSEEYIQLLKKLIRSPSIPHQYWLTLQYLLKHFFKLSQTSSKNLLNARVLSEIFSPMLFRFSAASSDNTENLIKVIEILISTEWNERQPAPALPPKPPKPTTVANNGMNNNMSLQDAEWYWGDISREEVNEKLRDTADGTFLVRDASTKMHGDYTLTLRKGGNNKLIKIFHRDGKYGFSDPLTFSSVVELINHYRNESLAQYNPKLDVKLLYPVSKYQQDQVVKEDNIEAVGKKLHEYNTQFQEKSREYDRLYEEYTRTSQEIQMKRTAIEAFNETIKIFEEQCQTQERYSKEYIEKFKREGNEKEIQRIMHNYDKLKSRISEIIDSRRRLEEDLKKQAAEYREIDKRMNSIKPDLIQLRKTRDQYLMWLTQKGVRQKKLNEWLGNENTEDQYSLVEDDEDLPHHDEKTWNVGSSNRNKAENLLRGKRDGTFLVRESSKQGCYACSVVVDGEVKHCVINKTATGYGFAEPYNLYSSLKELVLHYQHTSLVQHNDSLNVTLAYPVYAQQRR

Structure (SMILES)	IC50 (human TOR; [1]) [nM]	IC50 (PI3K-alpha; read-out: PI3Kα Avg. IC50) [nM]	IC50 (PI3K-alpha; PI3Kα Avg. IC50) [nM]	IC50 (human TOR; mTOR Kinase Avg. IC50) [nM]
Cc1c(C=C2Oc3cc(O)cc(O)c3C2=O)c2ccccc2n1CCCCl [Example 93, 2-{[1-(3-chloropropyl)-2-methyl-1H-indol-3-yl]methylene}-4,6-dihydroxy-1-benzofuran-3(2H)-one]	> 5000	2380		
CC(=O)Nc1ccc2[nH]c(C)c(C=C3Oc4cc(O)cc(O)c4C3=O)c2c1 [Example 216, N-{3-[(4,6-dihydroxy-3-oxo-1-benzofuran-2(3H)-ylidene)methyl]-2-methyl-1H-indol-5-yl}acetamide]	11500	9500		
Cn1c(-c2ccccc2)c(C=C2Oc3cc(O)cc(O)c3C2=O)c2ccccc21 [Example 15, 4,6-dihydroxy-2-[(1-methyl-2-phenyl-1H-indol-3-yl)methylene]-1-benzofuran-3(2H)-one]	90		2660	
O=C1C(=Cc2c(Br)[nH]c3ccccc23)Oc2cc(O)cc(O)c21 [Example 80, 2-[(2-bromo-1H-indol-3-yl)methylene]-4,6-dihydroxy-1-benzofuran-3(2H)-one]	490	> 10000		
Cc1c(C=C2Oc3cc(O)cc(O)c3C2=O)c2ccccc2n1CCCl [Example 92, 2-{[1-(2-chloroethyl)-2-methyl-1H-indol-3-yl]methylene}-4,6-dihydroxy-1-benzofuran-3(2H)-one]	2600	2040		
CCc1cccc2c(C=C3Oc4cc(O)cc(O)c4C3=O)c[nH]c12 [Example 187, 2-[(7-ethyl-1H-indol-3-yl)methylene]-4,6-dihydroxy-1-benzofuran-3(2H)-one]	> 20000	5000		
O=C1C(=Cc2c(-c3ccccc3)[nH]c3ccccc23)Oc2cc(O)ccc21 [Example 6, 6-hydroxy-2-[(2-phenyl-1H-indol-3-yl)methylene]-1-benzofuran-3(2H)-one]	2850	2400		
Cn1cc(C=C2Oc3cc(O)ccc3C2=O)c2ccccc21 [Example 8, 6-hydroxy-2-[(1-methyl-1H-indol-3-yl)methylene]-1-benzofuran-3(2H)-one]	> 20000	> 10000		
O=C1/C(=C/c2c(-c3ccc4ccccc4c3)[nH]c3ccccc23)Sc2ccc(Cl)cc21 [Example 285, (2Z)-5-chloro-2-{[2-(2-naphthyl)-1H-indol-3-yl]methylene}-1-benzothiophen-3(2H)-one]	> 20000	> 10000		
N#CCCCn1cc(C=C2Oc3cc(O)cc(O)c3C2=O)c2ccccc21 [Example 241, 4-{3-[(4,6-dihydroxy-3-oxo-1-benzofuran-2(3H)-ylidene)methyl]-1H-indol-1-yl}butanenitrile]	> 20000	4710		
Cn1cc(C=C2Oc3cc(O)cc(O)c3C2=O)c2c(OCc3ccccc3)cccc21 [Example 256, 2-{[4-(benzyloxy)-1-methyl-1H-indol-3-yl]methylene}-4,6-dihydroxy-1-benzofuran-3(2H)-one]	280	> 10000		
Cc1c(C=C2Oc3cc(O)cc(O)c3C2=O)c2ccccc2n1C [Example 247, 2-[(1,2-dimethyl-1H-indol-3-yl)methylene]-4,6-dihydroxy-1-benzofuran-3(2H)-one]	2900	3150		
Cn1cc(C=C2Oc3cc(O)cc(O)c3C2=O)c2cccc(Br)c21 [Example 249, 2-[(7-bromo-1-methyl-1H-indol-3-yl)methylene]-4,6-dihydroxy-1-benzofuran-3(2H)-one]	> 20000	4810		
Cn1c(-c2ccc(OCc3ccccc3)cc2)c(C=C2Oc3cc(O)cc(O)c3C2=O)c2ccccc21 [Example 260, 2-({2-[4-(benzyloxy)phenyl]-1-methyl-1H-indol-3-yl}methylene)-4,6-dihydroxy-1-benzofuran-3(2H)-one]	4500	1670		
O=C1C(=Cc2c(-c3ccccc3)n(CCN3CCNCC3)c3ccccc23)Oc2cc(O)cc(O)c21 [Example 160, 4,6-dihydroxy-2-{[2-phenyl-1-(2-piperazin-1-ylethyl)-1H-indol-3-yl]methylene}-1-benzofuran-3(2H)-one]	820	1010		
COc1cccc2c1c(C=C1Oc3cc(O)cc(O)c3C1=O)cn2C [Example 255, 4,6-dihydroxy-2-[(4-methoxy-1-methyl-1H-indol-3-yl)methylene]-1-benzofuran-3(2H)-one]	300	2460		
COc1cccc2c(C=C3Oc4cc(O)cc(O)c4C3=O)cn(C)c12 [Example 251, 4,6-dihydroxy-2-[(7-methoxy-1-methyl-1H-indol-3-yl)methylene]-1-benzofuran-3(2H)-one]	> 20000	2390		
O=C1C(=Cc2c[nH]c3cc4c(cc23)OCO4)Oc2cc(O)cc(O)c21 [Example 168, 2-(5H-[1,3]dioxolo[4,5-f]indol-7-ylmethylene)-4,6-dihydroxy-1-benzofuran-3(2H)-one]	> 20000	6540		
COC(=O)c1cccc2[nH]cc(C=C3Oc4cc(O)cc(O)c4C3=O)c12 [Example 222, methyl 3-[(4,6-dihydroxy-3-oxo-1-benzofuran-2(3H)-ylidene)methyl]-1H-indole-4-carboxylate]	2100	4460		
COc1ccc2c(c1)c(/C=C1\Oc3c(ccc(O)c3C)C1=O)c(C)n2CCCN(C)C [Example 450, (2Z)-2-({1-[3-(Dimethylamino)propyl]-5-methoxy-2-methyl-1H-indol-3-yl}methylene)-6-hydroxy-7-methyl-1-benzofuran-3(2H)-one]	> 20000	662		
O=C1C(=Cc2c[nH]c3ccc([N+](=O)[O-])cc23)Oc2cc(O)cc(O)c21 [Example 178, 4,6-dihydroxy-2-[(5-nitro-1H-indol-3-yl)methylene]-1-benzofuran-3(2H)-one]	12500	1470		
Cn1cc(C=C2Oc3cc(O)cc(O)c3C2=O)c2c(Cl)cccc21 [Example 252, 2-[(4-chloro-1-methyl-1H-indol-3-yl)methylene]-4,6-dihydroxy-1-benzofuran-3(2H)-one]	1500	555		
O=C1C(=Cc2c(-c3ccccn3)[nH]c3ccccc23)Oc2cc(O)cc(O)c21 [Example 72, 4,6-dihydroxy-2-[(2-pyridin-2-yl-1H-indol-3-yl)methylene]-1-benzofuran-3(2H)-one]			3650	21.2
Cc1ccc2c(/C=C3\Oc4cc(O)cc(O)c4C3=O)c[nH]c2c1 [Example 48, (2Z)-4,6-dihydroxy-2-[(6-methyl-1H-indol-3-yl)methylene]-1-benzofuran-3(2H)-one]	> 5000	3420		
COc1ccc(-c2cccc3c2c(/C=C2\Oc4cc(O)cc(O)c4C2=O)cn3C)cn1 [Example 369, (2Z)-4,6-Dihydroxy-2-{[4-(6-methoxypyridin-3-yl)-1-methyl-1H-indol-3-yl]methylene}-1-benzofuran-3(2H)-one]	84.5	1050		
CC(C)Oc1ccc(-c2c(C=C3Oc4cc(O)cc(O)c4C3=O)c3ccccc3n2C)cc1 [Example 261, 4,6-dihydroxy-2-{[2-(4-isopropoxyphenyl)-1-methyl-1H-indol-3-yl]methylene}-1-benzofuran-3(2H)-one]	680	1980		
O=C1C(=Cc2c(-c3ccsc3)[nH]c3ccccc23)Oc2cc(O)cc(O)c21 [Example 207, 4,6-dihydroxy-2-{[2-(3-thienyl)-1H-indol-3-yl]methylene}-1-benzofuran-3(2H)-one]	300	1290		

From US20090311217A1, “3-SUBSTITUTED-1H-INDOLE COMPOUNDS, THEIR USE AS MTOR KINASE AND PI3 KINASE INHIBITORS, AND THEIR SYNTHESES” (priority 2008, published 2009)
